Experimental findings from patent EP1290011B1 (Oncopeptides AB, priority 2000, dated 2001) are described below.

The structures appear in SMILES notation. Counter-ions that a name gives are not always drawn. Like-named read-outs stand apart in the source and are kept apart here.

Common to all, as to assay: cells
In test [1] the test system is hematological fresh human tumour specimens (PHTC). The following applies: 72 h, read-out: Tumour cell survival index % Hematological.
Test [2] concerns solid tumour fresh human tumour specimens (PHTC). The following applies: 72 h, read-out: Tumour cell survival index % Solid.
For another test, the system named is CEM/S. The test is classed as cell-based, human.
Another test concerns CEM/R. It is filed as cell-based, human.
Another test concerns ACHN. It is filed as cell-based, human.
In another test the test system is H69. The test is classed as cell-based, human.
A further test relates to H69AR. It is filed as cell-based, human.
The test system of another test is 8226S. The test is classed as cell-based, human.
For a further test, the system named is 8226Dox40. The test is classed as cell-based, human.
The next test relates to 8226LR5. The test is classed as cell-based, human.
The test system of another test is U937gtb. The test is classed as cell-based, human.
For the next test, the system named is U937vcr. The test is classed as cell-based, human.
The subject of test [3] is panel of ten human tumour cell lines. It is filed as cell-based. To be noted: read-out: MEAN IC50.
The test system of another test is NCI-H23. It is filed as cell-based.
For the next test, the system named is U-1752. The test is classed as cell-based.
The next test relates to NCI-H611. The test is classed as cell-based.
The subject of a further test is NCI-H157. The test is classed as cell-based.
A further test deals with U-1810. The test is classed as cell-based.
Another test has as its system NCI-H125. It is filed as cell-based.
In a further test the test system is U-1568. It is filed as cell-based.
The test system of a further test is U1285. It is filed as cell-based.
The next test relates to U-1906E. The test is classed as cell-based.
For a further test, the system named is U1690. It is filed as cell-based.
A further test deals with U1906L. The test is classed as cell-based.
[4] abbreviates: CEM/S, 72 hours incubation, read-out: IC50.
Where [5] appears, read: CEM/R, 72 hours incubation, read-out: IC50.
Setting [6] is: ACHN, primary resistant renal carcinoma, 72 hours incubation, read-out: IC50.
Setting [7] is: H69, small cell lung cancer, 72 hours incubation, read-out: IC50.
The mark [8] stands for this setting: H69AR, doxorubicin resistance, 72 hours incubation, read-out: IC50.
Where [9] appears, read: 8226S, myeloma, 72 hours incubation, read-out: IC50.
The mark [10] stands for this setting: 8226Dox40, doxorubicin resistance, 72 hours incubation, read-out: IC50.
Where [11] appears, read: 8226LR5, melphalan resistance, 72 hours incubation, read-out: IC50.
Where [12] appears, read: U937gtb, lymphoma, 72 hours incubation, read-out: IC50.
[13] abbreviates: U937vcr, vincristine resistance, 72 hours incubation, read-out: IC50.

In the case of `COc1cc([C@@H]2c3cc4c(cc3[C@@H](O[C@@H]3O[C@@H]5CO[C@@H](C)O[C@H]5[C@H](O)[C@H]3O)[C@H]3COC(=O)[C@H]23)OCO4)cc(OC)c1O` [Etoposide, etoposide], the viability at 8.5 µM in [1] is 47%; in test [2], 81%.
In general, IC50 refers to the point on the concentration scale where inhibition reaches its midpoint. Turning to `CCOC(=O)[C@H](Cc1ccc(OC)cc1)NC(=O)[C@@H](N)Cc1ccc(N(CCCl)CCCl)cc1` [JV25, L-Melphalanyl-L-p-methoxyphenylalanine ethyl ester hydrochloride], the IC50 was determined as 40 nM in the test on CEM/S (setting [4]); 20 nM in the test with CEM/R (setting [5]); 200 nM in the test with ACHN (setting [6]); 40 nM in the test with H69 (setting [7]); 280 nM in the test on H69AR (setting [8]); 650 nM in the test on 8226S (setting [9]). Besides, the IC50 with 8226Dox40 (setting [10]) came out at 1200 nM; in the test with 8226LR5 (setting [11]) it was 1820 nM; with U937gtb (setting [12]), 150 nM; in the test with U937vcr (setting [13]), 160 nM; in [3] (mean over the ten cell lines) it was 460 nM.
Regarding `CCOC(=O)[C@H](Cc1ccc(N(CCCl)CCCl)cc1)NC(=O)[C@@H](N)Cc1ccc(N(CCCl)CCCl)cc1` [JV27, L-Melphalanyl-L-melphalan ethyl ester hydrochloride], the IC50 stood at 140 nM in the test with CEM/S (setting [4]); 100 nM in the test on CEM/R (setting [5]); 210 nM in the test with ACHN (setting [6]); 290 nM in the test with H69 (setting [7]); 1400 nM in the test with H69AR (setting [8]); 1580 nM in the test with 8226Dox40 (setting [10]). For the same compound, the IC50 in the test with 8226LR5 (setting [11]) came to 2460 nM; in the test with U937gtb (setting [12]), 160 nM; with U937vcr (setting [13]), 260 nM; in test [3] (mean over the ten cell lines) it was 760 nM.
For `CCOC(=O)[C@H](Cc1ccc(O)cc1)NC(=O)[C@@H](N)Cc1ccc(N(CCCl)CCCl)cc1` [JV24, L-Helphalanyl-L-tyrosine ethyl ester hydrochloride], the IC50 was 50 nM in the test with CEM/S (read-out: IC50); 30 nM in the test on CEM/R (read-out: IC50); 320 nM in the test on ACHN (read-out: IC50); 80 nM in the test with H69 (read-out: IC50); 480 nM with H69AR (read-out: IC50); 1110 nM in the test on 8226S (read-out: IC50). Also, the IC50 in the test with 8226Dox40 (read-out: IC50) is 5540 nM; with 8226LR5 (read-out: IC50), 2500 nM; in the test with U937gtb (read-out: IC50), 200 nM; with U937vcr (read-out: IC50) it was 210 nM; in test [3], 1050 nM.
Take `N.N.[Cl][Pt][Cl]` [Cisplatin, cisplatin, reference compound]: the IC50 in the test on CEM/S (read-out: IC50) was found to be 2500 nM; in the test on CEM/R (read-out: IC50), 1870 nM; with ACHN (read-out: IC50) it was 17800 nM; in the test with H69 (read-out: IC50) it was 92500 nM; in the test with H69AR (read-out: IC50) it was 13500 nM; in the test on 8226S (read-out: IC50), 14800 nM. For the same compound, the IC50 in the test on 8226LR5 (read-out: IC50) worked out at 16300 nM; in the test with U937vcr (read-out: IC50), 3000 nM; in test [3], 18000 nM; with NCI-H23 (read-out: IC50), 11.6 µM; with U-1752 (read-out: IC50), 11.7 µM; in the test with NCI-H611 (read-out: IC50), 50.7 µM. Also, the IC50 came out at 27 µM with NCI-H157 (read-out: IC50); 10.3 µM with U-1810 (read-out: IC50); 7 µM with NCI-H125 (read-out: IC50); 23.4 µM in the test on U-1568 (read-out: IC50); 2930 nM in the test with U1285 (read-out: IC50); 21.1 µM in the test with U-1906E (read-out: IC50). For the same compound, the IC50 in the test on U1690 (read-out: IC50) turned out to be 6.73 µM.
Regarding `CCOC(=O)[C@H](Cc1ccc([N+](=O)[O-])cc1)NC(=O)[C@@H](N)Cc1ccc(N(CCCl)CCCl)cc1` [JV26, L-Malphalanyl-L-p-nitrophenylalanine ethyl ester hydrochloride], the IC50 in the test with CEM/S (setting [4]) turned out to be 50 nM; with CEM/R (setting [5]), 30 nM; with ACHN (setting [6]), 220 nM; in the test with H69 (setting [7]), 60 nM; with H69AR (setting [8]) it was 510 nM; in the test on 8226S (setting [9]), 1050 nM. Besides, the half-inhibitory concentration (IC50) with 8226Dox40 (setting [10]) turned out to be 1730 nM; in the test on 8226LR5 (setting [11]) it was 1990 nM; in the test with U937gtb (setting [12]), 230 nM; with U937vcr (setting [13]) it was 260 nM; in test [3] (mean over the ten cell lines), 610 nM.
Regarding `CCOC(=O)[C@H](Cc1ccc(N)cc1)NC(=O)[C@@H](N)Cc1ccc(N(CCCl)CCCl)cc1` [JV29, L-Me3phalariyl-L-p-aminophenylalanine ethyl ester hydrochloride], the IC50 in the test on CEM/S (setting [4]) amounted to 60 nM; in the test on CEM/R (setting [5]), 30 nM; in the test with ACHN (setting [6]), 190 nM; with H69 (setting [7]) it was 90 nM; in the test on H69AR (setting [8]), 460 nM; in the test with 8226S (setting [9]), 900 nM. Moreover, the IC50 in the test with 8226Dox40 (setting [10]) worked out at 2010 nM; in the test with 8226LR5 (setting [11]) it was 2730 nM; in the test on U937gtb (setting [12]) it was 150 nM; with U937vcr (setting [13]), 190 nM; in test [3] (mean over the ten cell lines), 680 nM.
As for `CC[C@@]1(O)C(=O)OCc2c1cc1n(c2=O)Cc2cc3c(CN(C)C)c(O)ccc3nc2-1` [Topotecan, topotecan, reference compound], the IC50 with CEM/S (Homo sapiens, 72 h) was 20 nM; with CEM/R (Homo sapiens, 72 h), 20 nM; in the test with ACHN (Homo sapiens, ACHN, 72 h), 16300 nM; in the test with H69 (Homo sapiens, NCI-H69, 72 h) it was 1720 nM; with H69AR (Homo sapiens, H69AR, 72 h) it was 180000 nM; with 8226S (Homo sapiens, 72 h), 870 nM. Further, the IC50 stood at 590 nM with 8226Dox40 (Homo sapiens, 72 h); 210 nM with 8226LR5 (Homo sapiens, 72 h); 20 nM with U937gtb (Homo sapiens, U-937/GTB, 72 h); 20 nM with U937vcr (Homo sapiens, 72 h); 20000 nM in test [3] (Homo sapiens); 5.84 µM with NCI-H23 (Homo sapiens, NCI-H23). For the same compound, the IC50 in the test with U-1752 stood at 28 µM; in the test with NCI-H611 it was 236 µM; in the test on NCI-H157 (Homo sapiens, NCI-H157), 4.33 µM; in the test on U-1810 (U-1810), 0.08 µM; with NCI-H125 (Homo sapiens, NCI-H125), 236 µM; in the test on U-1568, 115 µM. Further, the IC50 in the test with U1906L is 120 nM; in the test with U1285 it was 170 nM; in the test with U-1906E it was 0.08 µM; with U1690 it was 0.92 µM.
`CCOC(=O)[C@H](Cc1ccccc1)NC(=O)[C@@H](N)Cc1ccc(N(CCCl)CCCl)cc1` [JV22, L-Melphalanyl-L-phenylalanine ethyl ester hydrochloride]: the concentration for half-maximal inhibition (IC50) amounted to 20 nM in the test with CEM/S (read-out: IC50); 10 nM in the test with CEM/R (read-out: IC50); 170 nM in the test on ACHN (read-out: IC50); 40 nM with H69 (read-out: IC50); 390 nM with H69AR (read-out: IC50); 670 nM in the test with 8226S (read-out: IC50). The IC50 in the test with 8226Dox40 (read-out: IC50) worked out at 1380 nM; in the test on 8226LR5 (read-out: IC50), 1860 nM; in the test on U937gtb (read-out: IC50), 140 nM; in the test with U937vcr (read-out: IC50), 130 nM; in [3], 480 nM.
For `O=c1[nH]cc(F)c(=O)[nH]1` [Example 5-FU, 5-FU, reference compound], the half-inhibitory concentration (IC50) in the test on CEM/S (setting [4]) was 57400 nM; with CEM/R (setting [5]), 44500 nM; with ACHN (setting [6]) it was 769000 nM; with H69 (setting [7]), 769000 nM; with H69AR (setting [8]), 769000 nM; with 8226S (setting [9]), 75600 nM. In addition, the half-inhibitory concentration (IC50) in the test on 8226Dox40 (setting [10]) amounted to 60600 nM; in the test with 8226LR5 (setting [11]) it was 5300 nM; in the test on U937vcr (setting [13]), 572000 nM; in test [3] (mean over the ten cell lines), 321000 nM.
For the compound `Nc1ccn([C@@H]2O[C@H](CO)[C@@H](O)[C@@H]2O)c(=O)n1` [AraC], the viability at 10.3 µM in test [2] was found to be 102%.
As for `CCC1=C[C@@H]2CN(C1)Cc1c([nH]c3ccccc13)[C@@](C(=O)OC)(c1cc3c(cc1OC)N(C)[C@H]1[C@@](O)(C(=O)OC)[C@H](OC(C)=O)[C@]4(CC)C=CCN5CC[C@]31[C@@H]54)C2` [Vinorelbine, vinorelbine], the values for the viability at 3.1 µM in test [1] and in [2] were 50% and 73%, respectively.
For the compound `CC[C@]1(O)C[C@H]2CN(CCc3c([nH]c4ccccc34)[C@@](C(=O)OC)(c3cc4c(cc3OC)N(C=O)[C@H]3[C@@](O)(C(=O)OC)[C@H](OC(C)=O)[C@]5(CC)C=CCN6CC[C@]43[C@@H]65)C2)C1` [Vincristine, vincristine, reference compound], the IC50 in the test with CEM/S (Homo sapiens, 72 h) came to 80 nM; in the test on CEM/R (Homo sapiens, 72 h), 10 nM; with ACHN (Homo sapiens, ACHN, 72 h), 109000 nM; in the test with H69 (Homo sapiens, NCI-H69, 72 h), 69800 nM; with H69AR (Homo sapiens, H69AR, 72 h) it was 121000 nM; in the test with 8226S (Homo sapiens, 72 h), 10 nM. The IC50 with 8226Dox40 (Homo sapiens, 72 h) is 900 nM; in the test with 8226LR5 (Homo sapiens, 72 h), 80 nM; in the test on U937gtb (Homo sapiens, U-937/GTB, 72 h), 10 nM; in the test on U937vcr (Homo sapiens, 72 h), 80 nM; in [3] (Homo sapiens), 30100 nM. The viability at 3 µM in test [1] was 39%; in [2], 93%.
